This passage reports IC50 results from US20120276124A1, “MAYTANSINOIDS AND THE USE OF SAID MAYTANSINOIDS TO PREPARE CONJUGATES WITH AN ANTIBODY” (priority 2009, published 2012).

One assay concerns MDA-MB231. Briefly: Inhibition of growth of MDA-MB-231 tumor cells by free drugs (14C thymidine uptake). Format: cell-based. The conditions noted are these: Homo sapiens, MDA-MB231, 96 hrs, read-out: cellular inhibition proliferation (IC50 in nM) MDA-MB231. The procedure:
(§1) Inhibition of Growth of MDA-MB-231 and HCT116 Tumor Cells
(§2) Cells in exponential phase of growth were trypsinized and resuspended in their respective culture medium (DMEM/F12 Gibco #21331; 10% SVF Gibco #10500-056; […] Glutamine Gibco #25030 for MDA-MB231 & MDA-A1 cells; DMEM (Gibco #11960) 10%, SVF Gibco #10500-056; […] Glutamine Gibco #25030 for HCT116 cells). Cell suspension was distributed in 96-well Cytostar culture plates (GE Healthcare Europe, #RPNQ0163) in complete serum-containing media at a density of 5000 cells/well (MDA-MB231 HCT116). After coating for 4 hrs, serial dilutions were added to triplicate wells. Cells were cultured at 37° C./5% CO2 in the presence of the drug for 3 days. On the 4th day, 10 μl of a solution of 14C thymidine (0.1 μCi/well (Perkin Elmer #NEC56825000) was added to each well. The uptake of 14C thymidine was measured 96 hrs after the experiment has been started with a microbeta radioactive counter (Perkin Elmer). Cell-free reagent blanks were subtracted from the test well readings and the data were plotted as surviving fractions obtained by dividing readings of the conjugate-treated cells by the average of readings from control wells of vehicle-treated cells.

The next assay relates to HCT116. Kind of assay: Inhibition of growth of HCT116 tumor cells by free drugs (14C thymidine uptake). Format: cell-based. The conditions noted are these: Homo sapiens, HCT-116; HCT116, 96 hrs; read-out: cellular inhibition proliferation (IC50 in nM) HCT116. The procedure:
as §1, §2

Take `COC(=O)CCOCCOCCOCCOC/C=C/CSC(C)(C)CCC(=O)N(C)[C@@H](C)C(=O)O[C@H]1CC(=O)N(C)c2cc(cc(OC)c2Cl)C/C(C)=C/C=C/[C@@H](OC)[C@@]2(O)C[C@H](OC(=O)N2)[C@@H](C)[C@@H]2O[C@@]12C` [Example 12, L-DM4-Allyl-PEG4-COOMe]: the IC50 in the assay on MDA-MB231 was 1.5 nM; with HCT116 it was 0.8 nM.
In the case of `COC(=O)CCOCCOCCOCCOCCNC(=O)CSC(C)(C)CCC(=O)N(C)[C@@H](C)C(=O)O[C@H]1CC(=O)N(C)c2cc(cc(OC)c2Cl)C/C(C)=C/C=C/[C@@H](OC)[C@@]2(O)C[C@H](OC(=O)N2)[C@@H](C)[C@@H]2O[C@@]12C` [Example 10, L-DM4-AcNH-PEG4-COOMe], the figures for the IC50 in the assay with MDA-MB231 and in the assay on HCT116 were 15.3 nM and 13 nM, respectively.
Turning to `COC(=O)CCOCCOCCOCCOCCNC(=O)CCN1C(=O)CC(SC(C)(C)CCC(=O)N(C)[C@@H](C)C(=O)O[C@H]2CC(=O)N(C)c3cc(cc(OC)c3Cl)C/C(C)=C/C=C/[C@@H](OC)[C@@]3(O)C[C@H](OC(=O)N3)[C@@H](C)[C@@H]3O[C@@]23C)C1=O` (stereo partly drawn) [Example 14, L-DM4-Mal-PEG4-COOMe], the IC50 with MDA-MB231 stood at 31.7 nM; in the assay on HCT116, 33.6 nM.
As for `COC(=O)CCOCCOCCOCCOCCN(C)C(=O)CSC(C)(C)CCC(=O)N(C)[C@@H](C)C(=O)O[C@H]1CC(=O)N(C)c2cc(cc(OC)c2Cl)C/C(C)=C/C=C/[C@@H](OC)[C@@]2(O)C[C@H](OC(=O)N2)[C@@H](C)[C@@H]2O[C@@]12C` [Example 11, L-DM4-AcNMe-PEG4-COOMe], the IC50 came out at 28.3 nM in the assay with MDA-MB231 and 18.5 nM in the assay with HCT116.
